Source: patent EP3072514A1, “Novel oral anticoagulants (NOACs) for preventing development and aggravation of atrial fibrillation” (Université Pierre et Marie Curie - Paris 6 (UPMC), priority 2015, dated 2016)

Key:
[1] = Plasma concentration by LC-MS/MS in I/R rats; set-up: species or system Male OFA Sprague-dawley rats; conditions: rat, in vivo; 25 mg/kg/day (12.5 mg/kg BID) by force-feeding, 4 weeks; blood 90 minutes after last oral administration; ± SD
Text: • Figure 1 is a combination of two graphs showing left atrium (LA) area after one month of treatment with DTI Dabigatran (A) or S35792 (B). Vehicle (V) is 60% H2O/40% PEG 300 for dabigatran and saline for S35972. Treatment of rats started just after thoracotomy without (Sham) or with occlusion of left coronary artery followed by reperfusion (I/R). Results are presented as mean +/- S.E.M, *P<0.05, **P<0.01 and *** P<0.001 vs Sham; ^##P<0.01 and ^###P<0.001 vs untreated I/R. • Figure 2 is a combination of graphs showing left ventricular end-diastolic (LVED) diameter and fractional shortening (FS) after one month of treatment with Dabigatran (A) or S35792 (B). Vehicle (V) is 60% H2O/40% PEG 300 for dabigatran and saline for S35972. Treatment of rats started just after thoracotomy without (Sham) or with occlusion of left coronary artery followed by reperfusion (I/R). Results are presented as mean +/- S.E.M. * P<0.05; ** P<0.001, *** P<0.001 vs Sham; #P<0.05 vs untreated I/R. • Figure 3 is a combination of two graphs showing thrombin time (TT), which reflects anticoagulant activity, and plasma concentrations of Dabigatran (A) and S35792 (B) in rats after throracotomy with occlusion of left coronary artery followed by reperfusion (I/R). Vehicle (V) is 60% H2O/40% PEG 300 for dabigatran and saline for S35972. […] DTI plasma levels are quantified using LC-MS/MS. TT are expressed as mean +/- S.E.M with reference to the mean value of sham animals that underwent thoracotomy only. *** P<0.001 vs untreated I/R. • Figure 4 is a combination of three graphs showing left atrium (LA) area (A) and diameter (B) and left ventricle end-diastolic (LVED) diameter (C) after two months of treatment with S35972. […] LA area was measured by bidimensional echocardiography. LA and LVED diameters were measured in time-motion mode. […] AF duration is measured as the time between the end of the electric stimulation and the return to sinusoidal rhythm. […] Expression of mRNA was measured with real-time qPCR. […] Expression of mRNA was measured with real-time qPCR. […]

blood coagulation = experiment: Thrombin time (TT) on blood collected by cardiac puncture at sacrifice of I/R rats; type: in vivo, Male OFA Sprague-dawley rats; conditions: 25 mg/kg/day (12.5 mg/kg BID) by force-feeding; with reference to the mean value of sham animals
Text: • Figure 1 is a combination of two graphs showing left atrium (LA) area after one month of treatment with DTI Dabigatran (A) or S35792 (B). Vehicle (V) is 60% H2O/40% PEG 300 for dabigatran and saline for S35972. Treatment of rats started just after thoracotomy without (Sham) or with occlusion of left coronary artery followed by reperfusion (I/R). […] Vehicle (V) is 60% H2O/40% PEG 300 for dabigatran and saline for S35972. Treatment of rats started just after thoracotomy without (Sham) or with occlusion of left coronary artery followed by reperfusion (I/R). Results are presented as mean +/- S.E.M. * P<0.05; ** P<0.001, *** P<0.001 vs Sham; #P<0.05 vs untreated I/R. • Figure 3 is a combination of two graphs showing thrombin time (TT), which reflects anticoagulant activity, and plasma concentrations of Dabigatran (A) and S35792 (B) in rats after throracotomy with occlusion of left coronary artery followed by reperfusion (I/R). Vehicle (V) is 60% H2O/40% PEG 300 for dabigatran and saline for S35972. […] DTI plasma levels are quantified using LC-MS/MS. TT are expressed as mean +/- S.E.M with reference to the mean value of sham animals that underwent thoracotomy only. *** P<0.001 vs untreated I/R. • Figure 4 is a combination of three graphs showing left atrium (LA) area (A) and diameter (B) and left ventricle end-diastolic (LVED) diameter (C) after two months of treatment with S35972. […] LA area was measured by bidimensional echocardiography. LA and LVED diameters were measured in time-motion mode. […] AF duration is measured as the time between the end of the electric stimulation and the return to sinusoidal rhythm. […] Expression of mRNA was measured with real-time qPCR. […] Expression of mRNA was measured with real-time qPCR. […] Expression of mRNA was measured with real-time qPCR. […] LA area was measured by bidimensional echocardiography. LVED and LA diameters were measured in time-motion mode. […] AF duration is measured as the time between the end of the electric stimulation and return to sinusoidal rhythm. […]

[H]/N=C(/N)c1ccc(NCc2nc3cc(C(=O)N(CCC(=O)O)c4ccccn4)ccc3n2C)cc1 [dabigatran, reference compound]
concentration at 1.5 h [1]: 49.2 ± 19.3 ng/mL
thrombin time increases by a factor (blood coagulation): 8
